Test results reported in patent US10144737B2 (ETERNITY BIOSCIENCE INC., priority 2014, dated 2018).

How the values were obtained:
Btk = target: T1, Btk (Homo sapiens, UniProt Q06187); test: Btk kinase assay (ADP-Glo); type: biochemical; conditions: ADP-Glo Btk kinase assay kit; ATP 1.2 μM; 60 minutes at room temperature
T1 construct: purchased Promega (Madison, Wis.)
Method: Btk kinase assay—The Btk kinase assay was performed using a ADP-Glo Btk kinase assay kit purchased from Promega (Madison, Wis.). The assay was conducted according to the protocols provided in the assay kit. In brief, the enzyme reaction was carried out in the kinase reaction buffer containing Btk (2 ng/μl), ATP (1.2 μM), poly GT peptide (0.3 μM), DTT (40 nM), MnCl2 (1.4 mM), and 1 xkinase buffer (included in the kit) in the presence or absence of the tested articles at various concentrations in 384-well plate at room temperature (22±1° C.) for 60 minutes. The final reaction volume for each reaction was 10 μl. Then, 4 μl of ADP-Glo reagent (included in the kit) was added into the reaction and the plate was further incubated for another 40 minutes to terminate the reaction and deplete the remaining ATP. Finally, 10 μl of the kinase detection reagent was added into each reaction to simultaneously convert ADP to ATP and allow the newly synthesized ATP to be measured by a plate-reading luminometer (Victor X5 2030 multilabel reader, PerkinElmer). IC50 value was calculated using appropriate programs in GraphPad Prism by plotting the logarithm of the concentration versus percent inhibition as compared with a vehicle (DMSO) control.

TMD-8 cells = test: Cell proliferation assay (CellTiter-Glo), TMD-8 cells; type: cell-based; conditions: Homo sapiens, TMD8, 120 h, 5-day treatment, read-out: TMD8 cell growth (GI50 μM)
Method: Cell proliferation assay: TMD-8 and SU-DHL-1 cells were maintained at 37° C. in a humidified atmosphere with 5% CO2 in the recommended medium and serum concentrations. For cell proliferation assay, cells were seeded in 96-well pates at a density of 5,000 to 10,000 cells per well and cultured overnight at 37° C. in recommended medium supplemented with 5-10% FBS. On the next day, the test articles at various concentrations or vehicle control (0.5% DMSO) were added into cell culture. After 5-day treatment, the growth of cells was assayed by the CellTiter-Glo® Luminestceaent Cell Viability Assay (Promega). IC50 values were calculated using GraphPad Prism by plotting the logarithm of the concentration versus percent inhibition of cell growth as compared with the vehicle control.

T1 sequence (Q06187 whole entry): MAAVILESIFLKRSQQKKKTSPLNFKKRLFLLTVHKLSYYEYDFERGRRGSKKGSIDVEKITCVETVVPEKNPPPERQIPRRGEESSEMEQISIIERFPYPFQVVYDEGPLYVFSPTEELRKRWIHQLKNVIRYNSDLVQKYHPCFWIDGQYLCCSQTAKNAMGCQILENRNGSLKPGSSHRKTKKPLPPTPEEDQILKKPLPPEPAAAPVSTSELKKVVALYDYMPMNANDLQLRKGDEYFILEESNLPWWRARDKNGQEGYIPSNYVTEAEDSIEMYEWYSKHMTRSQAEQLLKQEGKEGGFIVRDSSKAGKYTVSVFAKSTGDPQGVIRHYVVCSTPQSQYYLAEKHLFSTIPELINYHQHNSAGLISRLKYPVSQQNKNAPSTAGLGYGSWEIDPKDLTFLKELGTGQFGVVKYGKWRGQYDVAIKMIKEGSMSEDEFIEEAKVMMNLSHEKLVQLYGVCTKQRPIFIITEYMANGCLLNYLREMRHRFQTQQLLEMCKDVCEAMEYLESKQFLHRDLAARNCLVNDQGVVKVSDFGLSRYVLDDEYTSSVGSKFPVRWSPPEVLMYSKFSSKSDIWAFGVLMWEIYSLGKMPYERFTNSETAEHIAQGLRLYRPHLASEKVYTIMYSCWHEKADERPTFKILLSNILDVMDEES

Row | SMILES | IC50 (Btk) | GI50 (TMD-8 cells)
1 | C=CC(=O)N1CC[C@@H](Nc2ncnc3[nH]c(C#Cc4cccc(Cl)c4)cc23)C1 [Example 57, (R)-1-(3-((6-((3-chlorophenyl)ethynyl)-7H-pyrrolo[2,3-d]pyrimidin-4-yl)amino)pyrrolidin-1-yl)prop-2-en-1-one] | 24 nM | 0.01 µM
2 | C=CC(=O)N1CC[C@@H](Nc2ncnc3[nH]c(C#Cc4cccc(OC)c4)cc23)C1 [Example 60, (R)-1-(3-((6-((3-methoxyphenyl)ethynyl)-7H-pyrrolo[2,3-d]pyrimidin-4-yl)amino)pyrrolidin-1-yl)prop-2-en-1-one] | 11 nM | 0.005 µM
3 | C=CC(=O)N1CC[C@@H](Nc2ncnc3[nH]c(C#Cc4cccc(F)c4)cc23)C1 [Example 61, (R)-1-(3-((6-((3-fluorophenyl)ethynyl)-7H-pyrrolo[2,3-d]pyrimidin-4-yl)amino)pyrrolidin-1-yl)prop-2-en-1-one] | 121 nM | 0.022 µM
4 | C=CC(=O)N1CC[C@@H](Nc2ncnc3[nH]c(C#Cc4ccc(F)cc4)cc23)C1 [Example 62, (R)-1-(3-((6-((4-fluorophenyl)ethynyl)-7H-pyrrolo[2,3-d]pyrimidin-4-yl)amino)pyrrolidin-1-yl)prop-2-en-1-one] | 52 nM | 0.024 µM
5 | C=CC(=O)N1CC[C@@H](Nc2ncnc3[nH]c(C#Cc4ccc(Cl)c(Cl)c4)cc23)C1 [Example 64, (R)-1-(3-((6-((3,4-dichlorophenyl)ethynyl)-7H-pyrrolo[2,3-d]pyrimidin-4-yl)amino)pyrrolidin-1-yl)prop-2-en-1-one] | 0.2 nM | 0.005 µM
6 | C=CC(=O)N1CC[C@@H](Nc2ncnc3[nH]c(C#Cc4ccc(OC(F)(F)F)cc4)cc23)C1 [Example 66, (R)-1-(3-((6-((4-trifluoromethoxyphenyl)ethynyl)-7H-pyrrolo[2,3-d]pyrimidin-4-yl)amino)pyrrolidin-1-yl)prop-2-en-1-one] | 215 nM | 0.0012 µM
7 | C=CC(=O)N1CC[C@@H](Nc2ncnc3[nH]c(C#Cc4ccc(C(F)(F)F)cc4)cc23)C1 [Example 67, (R)-1-(3-((6-((4-trifluoromethylphenyl)ethynyl)-7H-pyrrolo[2,3-d]pyrimidin-4-yl)amino)pyrrolidin-1-yl)prop-2-en-1-one] | 272 nM | 0.004 µM
8 | C=CC(=O)N1CC[C@@H](Nc2ncnc3[nH]c(C#Cc4ccc5ccccc5c4)cc23)C1 [Example 71, (R)-1-(3-((6-(naphthalen-2-ylethynyl)-7H-pyrrolo[2,3-d]pyrimidin-4-yl)amino)pyrrolidin-1-yl)prop-2-en-1-one] | 10 nM | 0.001 µM
9 | C=CC(=O)N1CC[C@@H](Nc2ncnc3[nH]c(C#Cc4ccc5occc5c4)cc23)C1 [Example 74, (R)-1-(3-((6-(benzofuran-5-ylethynyl)-7H-pyrrolo[2,3-d]pyrimidin-4-yl)amino)pyrrolidin-1-yl)prop-2-en-1-one] | 0.03 nM | 0.0012 µM
10 | C=CC(=O)N1CC[C@@H](Nc2ncnc3[nH]c(C#Cc4ccc5ncccc5c4)cc23)C1 [Example 77, (R)-1-(3-((6-(quinolin-6-ylethynyl)-7H-pyrrolo[2,3-d]pyrimidin-4-yl)amino)pyrrolidin-1-yl)prop-2-en-1-one] | 145 nM | 0.526 µM
11 | C=CC(=O)N1CC[C@@H](Nc2ncnc3[nH]c(C#CCOc4ccccc4C#N)cc23)C1 [Example 82, (R)-1-(3-((6-(3-(2-cyanophenoxy)prop-1-yn-1-yl)-7H-pyrrolo[2,3-d]pyrimidin-4-yl)amino)pyrrolidin-1-yl)prop-2-en-1-one] | 38 nM | 0.0045 µM

The remaining compounds from weak to strong by IC50 (Btk), led by results:

Row | IC50 (Btk) | SMILES | GI50 (TMD-8 cells)
12 | 742 nM | C=CC(=O)N1CC[C@@H](Nc2ncnc3[nH]c(C#Cc4ccccc4OC)cc23)C1 [Example 59, (R)-1-(3-((6-((2-methoxyphenyl)ethynyl)-7H-pyrrolo[2,3-d]pyrimidin-4-yl)amino)pyrrolidin-1-yl)prop-2-en-1-one] | 1.97 µM
13 | 702 nM | C=CC(=O)N1CC[C@@H](Nc2ncnc3[nH]c(C#CC4CCCCC4)cc23)C1 [Example 78, (R)-1-(3-((6-(cyclohexylethynyl)-7H-pyrrolo[2,3-d]pyrimidin-4-yl)amino)pyrrolidin-1-yl)prop-2-en-1-one] | 2.68 µM
14 | 255 nM | C=CC(=O)N1CC[C@@H](Nc2ncnc3[nH]c(C#Cc4cnn(C)c4)cc23)C1 [Example 80, (R)-1-(3-((6-((1-methyl-1H-pyrazol-4-yl)ethynyl)-7H-pyrrolo[2,3-d]pyrimidin-4-yl)amino)pyrrolidin-1-yl)prop-2-en-1-one] | 0.51 µM
15 | 187 nM | C=CC(=O)N1CC[C@@H](Nc2ncnc3[nH]c(C#Cc4cccc(C(F)(F)F)c4)cc23)C1 [Example 68, (R)-1-(3-((6-((3-trifluoromethylphenyl)ethynyl)-7H-pyrrolo[2,3-d]pyrimidin-4-yl)amino)pyrrolidin-1-yl)prop-2-en-1-one] | 0.003 µM
16 | 182 nM | C=CC(=O)N1CC[C@@H](Nc2ncnc3[nH]c(C#Cc4cccc(C)c4)cc23)C1 [Example 69, (R)-1-(3-((6-((3-methylphenyl)ethynyl)-7H-pyrrolo[2,3-d]pyrimidin-4-yl)amino)pyrrolidin-1-yl)prop-2-en-1-one] | 0.007 µM
17 | 173 nM | C=CC(=O)N1CC[C@@H](Nc2ncnc3[nH]c(C#Cc4cccc(OC(F)(F)F)c4)cc23)C1 [Example 65, (R)-1-(3-((6-((3-trifluoromethoxyphenyl)ethynyl)-7H-pyrrolo[2,3-d]pyrimidin-4-yl)amino)pyrrolidin-1-yl)prop-2-en-1-one] | 0.0027 µM
18 | 33 nM | C=CC(=O)N1CC[C@@H](Nc2ncnc3[nH]c(C#CCOc4ccccc4OC(F)(F)F)cc23)C1 [Example 81, (R)-1-(3-((6-(3-(2-(trifluoromethoxy)phenoxy)prop-1-yn-1-yl)-7H-pyrrolo[2,3-d]pyrimidin-4-yl)amino)pyrrolidin-1-yl)prop-2-en-1-one] | 0.003 µM
19 | 30 nM | C=CC(=O)N1CC[C@@H](Nc2ncnc3[nH]c(C#Cc4cccs4)cc23)C1 [Example 75, (R)-1-(3-((6-(thiophen-2-ylethynyl)-7H-pyrrolo[2,3-d]pyrimidin-4-yl)amino)pyrrolidin-1-yl)prop-2-en-1-one] | 0.0049 µM
20 | 7.2 nM | C=CC(=O)N1CC[C@@H](Nc2ncnc3[nH]c(C#Cc4ccc(Cl)c(F)c4)cc23)C1 [Example 70, (R)-1-(3-((6-((3-fluoro-4-chlorophenyl)ethynyl)-7H-pyrrolo[2,3-d]pyrimidin-4-yl)amino)pyrrolidin-1-yl)prop-2-en-1-one] | 0.0013 µM
21 | 4.8 nM | C=CC(=O)N1CC[C@@H](Nc2ncnc3[nH]c(C#Cc4ccc(Cl)cc4)cc23)C1 [Example 63, (R)-1-(3-((6-((4-chlorophenyl)ethynyl)-7H-pyrrolo[2,3-d]pyrimidin-4-yl)amino)pyrrolidin-1-yl)prop-2-en-1-one] | 0.0027 µM
22 | 3.5 nM | C=CC(=O)N1CC[C@@H](Nc2ncnc3[nH]c(C#Cc4ccc5c(c4)OCO5)cc23)C1 [Example 72, (R)-1-(3-((6-(benzo[d][1,3]dioxol-5-ylethynyl)-7H-pyrrolo[2,3-d]pyrimidin-4-yl)amino)pyrrolidin-1-yl)prop-2-en-1-one] | 0.0007 µM
23 | 2 nM | C=CC(=O)N1CC[C@@H](Nc2ncnc3[nH]c(C#Cc4ccoc4)cc23)C1 [Example 79, (R)-1-(3-((6-(furan-3-ylethynyl)-7H-pyrrolo[2,3-d]pyrimidin-4-yl)amino)pyrrolidin-1-yl)prop-2-en-1-one] | 0.031 µM
24 | 1 nM | C=CC(=O)N1CC[C@@H](Nc2ncnc3[nH]c(C#Cc4ccsc4)cc23)C1 [Example 76, (R)-1-(3-((6-(thiophen-3-ylethynyl)-7H-pyrrolo[2,3-d]pyrimidin-4-yl)amino)pyrrolidin-1-yl)prop-2-en-1-one] | 0.0032 µM
25 | 0.4 nM | CN(C)C/C=C/C(=O)N1CC[C@@H](Nc2ncnc3[nH]c(C#Cc4cccc(Cl)c4)cc23)C1 [Example 58, (R,E)-1-(3-((6-((3-chlorophenyl)ethynyl)-7H-pyrrolo[2,3-d]pyrimidin-4-yl)amino)pyrrolidin-1-yl)-4-(dimethylamino)but-2-en-1-one] | 0.171 µM
26 | 0.1 nM | C=CC(=O)N1CC[C@@H](Nc2ncnc3[nH]c(C#Cc4ccc5sccc5c4)cc23)C1 [Example 73, (R)-1-(3-((6-(benzo[b]thiophen-5-ylethynyl)-7H-pyrrolo[2,3-d]pyrimidin-4-yl)amino)pyrrolidin-1-yl)prop-2-en-1-one] | 0.001 µM
